# Patent US20220073496A1, “NOVEL QUINOLINE DERIVATIVE INHIBITOR” (Nanjing Transthera Biosciences Co., Ltd., priority 2018, published 2022)
# Where two headings read alike, the source gives them in different places.
# Assay: Rat PK evaluation
# Type: in vivo
# Conditions: SD rats; for Vz_obs iv (apparent distribution volume) / bioavailability / AUC(0-t) / clearance / half-life: n = 3; for bioavailability / AUC(0-t) / clearance / half-life / Tmax: rat, plasma; for bioavailability: read-out: F % (absolute bioavailability); for clearance: read-out: Cl_obs iv (clearance rate) (converted); for Tmax: n = 3, median, read-out: Tmax po (time to peak plasma concentration)
# Description: Assay 2: Rat PK Evaluation for the Compounds of the Present Invention
# Animal Administration and Sample Collection:
# (§1) The test compounds 14, 15, 16, 20, 29, 30, 31, 32, 33, 34, 36, 37, 47 and 48 were dissolved in 5% DMSO+20% (30% solutol)+75% saline to prepare the compound solutions. Each of the compound solutions was intragastrically administered to SD rats at a dose of 5.0 mg/kg. The time points of blood collection were: 15 minutes, 30 minutes, 1 hour, 2 hours, 4 hours, 6 hours, 8 hours, 24 hours, 30 hours, and 48 hours.
# The test compounds 38, 39, 40 and 41 were dissolved in 5% NMP+5% Tween-80+90% saline to prepare the compound solutions. Each of the compound solutions was intragastrically administered to SD rats at a dose of 5.0 mg/kg. The time points of blood collection were: 15 minutes, 30 minutes, 1 hour, 2 hours. 4 hours, 6 hours, 8 hours, 24 hours, 30 hours, and 48 hours.
# as §1, with “was” for “was intragastrically”, “administered by intravenous bolus injection” for “administered”, “1” for “5.0”, “were: 5 minutes,” for “were:”, “hours,” for “hours, 30 hours,”
# The test compounds 38, 39, 40 and 41 were dissolved in 5% NMP+5% Tween-80+90% saline to prepare the compound solutions. Each of the compound solutions was administered by intravenous bolus injection to SD rats at a dose of 1 mg/kg. The time points of blood collection were: 5 minutes, 15 minutes, 30 minutes, 1 hour, 2 hours, 4 hours, 6 hours, 8 hours, 24 hours, and 48 hours.
# The animal was fixed. The tail was heated in a water bath pot 10 minutes before each time point. About 100 μL of blood was collected through the tail vein. The blood was collected and placed in an anti-coagulation tube containing EDTA-K2. The blood sample was centrifuged at 8000 rpm for 6 minutes at 4° C. to obtain a plasma sample. The plasma was prepared within 30 minutes after the blood collection. The plasma was stored in a −80° C. refrigerator before testing.
# The sample to be tested was taken out from the −80° C. refrigerator, naturally melted at room temperature and vortexed for 5 minutes. 20 μL of plasma sample was accurately pipetted into a 1.5 mL centrifuge tube. 200 μL of an internal standard working solution (a solution of tolbutamide in methanol) having a concentration of 100 ng/mL was added and mixed well. The mixture was vortexed for 5 minutes, and centrifuged at 12000 rpm for 5 minutes. 50 μL of the supernatant was accurately pipetted into a 96-well plate pre-filled with 150 μL/well of water. The plate was vortexed for 5 minutes and mixed well, and then the LC-MS/MS determination and analysis were performed.
# The concentration of the test substance was output using Analyst 1.6.3 from AB Company. Parameters such as mean, standard deviation, and coefficient of variation were calculated with Microsoft Excel (direct outputs from Analyst 1.6.3 were not calculated), and the PK parameters were calculated using Pharsight Phoenix 6.1 software NCA (Tmax was the median).
# [1] = IV 1 mg/kg, read-out: AUClast iv (area under the drug-time curve from 0 to 48 hours)
# [2] = IV 1 mg/kg, read-out: tz1/2 iv (terminal elimination half-life) (converted)
# [3] = PO 5 mg/kg, read-out: AUClast po (area under the drug-time curve from 0 to 48 hours)
# [4] = PO 5 mg/kg, read-out: tz1/2 po (terminal elimination half-life) (converted)
Structure (SMILES),Vz_obs iv (apparent distribution volume) (IV 1 mg/kg) [L/kg],"bioavailability (IV 1 mg/kg, PO 5 mg/kg) [%]",AUC(0-t) [1] [ng·h/mL],clearance (IV 1 mg/kg) [mL/min/kg],half-life [2] [h],AUC(0-t) [3] [ng·h/mL],half-life [4] [h],Tmax (PO 5 mg/kg) [h]
"COc1cc2nccc(Oc3ccc(NC(=O)c4nn(C(C)C)cc(-c5ccc(F)cc5)c4=O)nc3)c2cc1OC [Compound 15, N-(5-((6,7-dimethoxyquinolin-4-yl)oxy)pyridin-2-yl)-5-(4-fluorophenyl)-1-isopropyl-4-oxo-1,4-dihydropyridazine-3-carboxamide]",1.23,78.9,18100,0.783,18.5,67400,20.5,–
"COc1cc2nccc(Oc3ncc(NC(=O)c4nn(C5CC5)cc(-c5ccc(F)cc5)c4=O)cn3)c2cc1OC [Compound 37, 1-cyclopropyl-N-(2-((6,7-dimethoxyquinolin-4-yl)oxy)pyrimidine-5-yl)-5-para-fluorophenyl-4-oxo-1,4-dihydropyridazine-3-carboxamide]",0.12,78.7,69700,0.233,5.98,273000,7.73,4
"COc1cc2nccc(Oc3cnc(NC(=O)c4nn(C(C)C)cc(-c5ccc(F)cc5)c4=O)nc3)c2cc1OC [Compound 16, N-(5-((6,7-dimethoxyquinolin-4-yl)oxy)pyrimidine-2-yl)-5-(4-fluorophenyl)-1-isopropyl-4-oxo-1,4-dihydropyridazine-3-carboxamide]",0.12,35.6,48600,0.35,4.13,86400,5.67,1
COc1cc2nccc(Oc3ccc(NC(=O)c4nn(C5CC5)cc(-c5ccc(F)cc5)c4=O)nc3)c2cc1OC [Compound 31],0.14,27.7,224000,0.05,32.6,310000,19.2,4
"COc1cc2nccc(Oc3cnc(NC(=O)c4cn(C5CC5)cc(-c5ccc(F)cc5)c4=O)nc3)c2cc1OC [Compound 32, 1-cyclopropyl-N-(5-((6,7-dimethoxyquinolin-4-yl)oxy)pyrimidine-2-yl)-5-(4-fluorophenyl)-4-oxo-1,4-dihydropyridin-3-carboxamide]",0.23,75.4,23900,0.75,3.74,90500,5.04,4
"COc1cc2nccc(Oc3cnc(NC(=O)c4cn(C(C)C)nc(-c5ccc(F)cc5)c4=O)nc3)c2cc1OC [Compound 39, N-(5-((6,7-dimethoxyquinolin-4-yl)oxy)pyrimidine-2-yl)-6-(4-fluorophenyl)-2-isopropyl-5-oxo-2,5-dihydropyridazine-4-carboxamide]",1.21,90.2,6920,2.5,5.89,32400,5.67,2
"COc1cc2nccc(Oc3ccc(NC(=O)c4cn(C(C)C)cc(-c5ccc(F)cc5)c4=O)nc3)c2cc1OC [Compound 14, N-(5-((6,7-dimethoxyquinolin-4-yl)oxy)pyridin-2-yl)-5-(4-fluorophenyl)-1-isopropyl-4-oxo-1,4-dihydropyridin-3-carboxamide]",0.25,63.2,34900,0.45,6.3,110000,12.1,2
"COc1cc2nccc(Oc3ccc(NC(=O)c4nn(C(C)C)cc(-c5ccc(F)cc5)c4=O)cn3)c2cc1OC [Compound 29, N-(6-((6,7-dimethoxyquinolin-4-yl)oxy)pyridin-3-yl)-1-isopropyl-4-oxo-5-para-fluorophenyl-1,4-dihydropyridazine-3-carboxamide]",0.42,59.1,78600,0.6,13.7,246000,12.2,4
COc1cc2nccc(Oc3cnc(NC(=O)c4nn(C5CC5)cc(-c5ccc(F)cc5)c4=O)nc3)c2cc1OC [Compound 33],0.146,31.7,55700,0.3,5.47,88800,4.73,2
"COc1cc2nccc(Oc3ccc(NC(=O)c4cn(C(C)C)nc(-c5ccc(F)cc5)c4=O)nc3)c2cc1OC [Compound 41, N-(5-((6,7-dimethoxyquinolin-4-yl)oxy)pyridin-2-yl)-6-(4-fluorophenyl)-2-isopropyl-5-oxo-2,5-dihydropyridazine-4-carboxamide]",6.81,103,2750,5.83,14.1,14400,13.7,4
"COc1cc2nccc(Oc3ccc(NC(=O)c4cn(C(C)C)nc(-c5ccc(F)cc5)c4=O)cn3)c2cc1OC [Compound 38, N-(6-((6,7-dimethoxyquinolin-4-yl)oxy)pyridin-3-yl)-6-para-fluorophenyl-2-isopropyl-5-oxo-2,5-dihydropyridazine-4-carboxamide]",3.32,81.6,6000,2.5,15.2,25500,12.1,4
"COc1cc2nccc(Oc3ccc(NC(=O)c4cn(C5CC5)cc(-c5ccc(F)cc5)c4=O)nc3)c2cc1OC [Compound 30, N-(5-((6,7-dimethoxyquinolin-4-yl)oxy)pyridin-2-yl)-1-cyclopropyl-4-oxo-5-para-fluorophenyl-1,4-hydropyridin-3-carboxamide]",0.30,78.7,41400,0.4,8.68,152000,13.4,6
"COc1cc2nccc(Oc3ncc(NC(=O)c4cn(C(C)C)nc(-c5ccc(F)cc5)c4=O)cn3)c2cc1OC [Compound 40, N-(2-((6,7-dimethoxyquinolin-4-yl)oxy)pyrimidine-5-yl)-6-(4-fluorophenyl)-2-isopropyl-5-oxo-2,5-dihydropyridazine-4-carboxamide]",1.84,63.4,7270,2.33,9.18,23000,8.68,4
COc1cc2nccc(Oc3ccc(NC(=O)c4nn(C5CC5)cc(-c5ccc(F)cc5)c4=O)cn3)c2cc1OC [Compound 36],0.095,57.5,167000,0.0967,11.6,463000,12.7,4
